In article PMC7074199, “Phytochemicals of Minthostachys diffusa Epling and Their Health-Promoting Bioactivities” (Foods, 2020):
Like-named read-outs stand apart in the source and are kept apart here.

Tests used:
Oncopeltus fasciatus = system: Oncopeltus fasciatus; parameters: method as in earlier work; conditions: cited from earlier work
BChE = system: BChE; parameters: method as in doi:10.1016/j.foodchem.2010.10.050; conditions: isolated from Micromeria cilicica; cited from earlier work
[1] = biological target: T1, butyrylcholinesterase (BChE) from equine serum (Equus caballus, UniProt P81908); assay: biochemical
T1 construct: butyrylcholinesterase (BChE) from equine serum (lyophilized powder); purchased Sigma-Aldrich (Milan, Italy); host or cells: equine serum
From the text: (§1) The two prevalent forms of cholinesterase in a healthy brain are acetylcholinesterase (AChE) and butyrylcholinesterase (BChE). Ellman’s reaction to analyse the AChE and BChE inhibition by the samples was used as described before.

[2] = biological target: T2, acetylcholinesterase (AChE) from Electrophorus electricus (Electrophorus electricus, UniProt O42275); assay: biochemical
T2 construct: purchased Sigma-Aldrich (Milan, Italy) type VI-s
From the text: as §1

AChE = system: AChE; parameters: method as in doi:10.1016/j.foodchem.2010.10.050; conditions: isolated from Micromeria cilicica; cited from earlier work
[3] = Nitric oxide radical scavenging assay; conditions: concentration inhibiting 25% of radicals
Description: All M. diffusa samples were tested for their radical scavenging activity by four different in vitro chemical assays targeted against the biological super oxide anion (O2^−) and nitric oxide (NO) radicals, and the synthetic neutral DPPH and cationic ABTS^+ radicals.

[4] = system: aged as well as scopolamine-induced amnesic rats; parameters: method as in doi:10.31024/ajpp.2018.4.6.17; conditions: cited from earlier work
[5] = read-out: AChE IC50 (converted)

T2 sequence (O42275 24-633): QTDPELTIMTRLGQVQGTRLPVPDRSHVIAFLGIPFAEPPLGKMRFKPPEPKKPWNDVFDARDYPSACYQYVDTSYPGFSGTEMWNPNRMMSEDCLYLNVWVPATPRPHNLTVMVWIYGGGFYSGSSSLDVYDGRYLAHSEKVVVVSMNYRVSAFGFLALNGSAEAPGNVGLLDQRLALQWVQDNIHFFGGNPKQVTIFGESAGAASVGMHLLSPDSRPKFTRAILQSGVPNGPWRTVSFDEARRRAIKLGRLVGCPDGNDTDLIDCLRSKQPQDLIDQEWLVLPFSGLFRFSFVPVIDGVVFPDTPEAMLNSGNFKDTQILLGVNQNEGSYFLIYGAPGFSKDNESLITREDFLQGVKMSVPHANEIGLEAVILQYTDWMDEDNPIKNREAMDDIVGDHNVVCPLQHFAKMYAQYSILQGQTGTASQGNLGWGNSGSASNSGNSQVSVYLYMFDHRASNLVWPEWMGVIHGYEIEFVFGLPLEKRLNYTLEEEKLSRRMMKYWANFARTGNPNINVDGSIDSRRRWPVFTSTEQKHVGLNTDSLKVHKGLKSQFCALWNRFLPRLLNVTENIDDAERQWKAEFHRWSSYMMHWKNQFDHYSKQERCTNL
T1 sequence (P81908 whole entry): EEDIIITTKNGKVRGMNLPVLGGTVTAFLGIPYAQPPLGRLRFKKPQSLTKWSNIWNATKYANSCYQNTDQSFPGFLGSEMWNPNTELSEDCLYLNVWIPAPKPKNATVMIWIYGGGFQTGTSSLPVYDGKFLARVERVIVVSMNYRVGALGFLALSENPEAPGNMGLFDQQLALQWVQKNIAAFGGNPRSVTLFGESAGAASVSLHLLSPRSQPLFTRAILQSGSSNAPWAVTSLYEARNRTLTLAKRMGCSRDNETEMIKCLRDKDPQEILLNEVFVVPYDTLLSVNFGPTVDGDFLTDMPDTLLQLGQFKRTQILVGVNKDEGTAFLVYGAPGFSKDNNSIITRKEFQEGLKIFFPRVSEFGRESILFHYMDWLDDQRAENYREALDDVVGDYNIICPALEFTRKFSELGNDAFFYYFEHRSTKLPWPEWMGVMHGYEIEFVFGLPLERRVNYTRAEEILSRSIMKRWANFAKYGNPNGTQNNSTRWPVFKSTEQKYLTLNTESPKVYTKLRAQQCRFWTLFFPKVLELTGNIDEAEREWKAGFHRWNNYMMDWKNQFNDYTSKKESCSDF

CC(=O)O[C@H]1[C@H]2O[C@@]2(C)CC[C@H]1C(C)C [(−)-(1S,2R,3R,4S)-1,2-epoxy-1-methyl-4-(1-methylethyl)-cyclohex-3-yl acetate]
insecticidal activity (Oncopeltus fasciatus): significant insecticidal activity

C[C@H]1[C@H](C)CC[C@]2(C(=O)O)CC[C@]3(C)C(=CC[C@@H]4[C@@]5(C)CC[C@H](O)C(C)(C)[C@@H]5CC[C@]43C)[C@H]12 [Ursolic acid]
IC50 (BChE): 41.1 µM
IC50 ([1]; read-out: BChE IC50): 83.5 ± 0.94 µM
IC50 [2, 5]: 85.3 ± 5.85 µM
IC50 (AChE): 93.8 µM

O=C1O[C@H]([C@@H](O)CO)C(O)=C1O [ascorbic acid]
NO IC25 [3]: 4.78 ± 0.09 mg/mL

C=C(C)[C@@H]1CC[C@]2(C(=O)O)CC[C@]3(C)[C@H](CC[C@@H]4[C@@]5(C)CC[C@H](O)C(C)(C)[C@@H]5CC[C@]43C)[C@@H]12 [betulinic acid]
IC50 [2, 5]: 19.7 µM
effect on learning and memory [4]: improves learning and memory

COc1ccc2c3c1O[C@H]1C[C@@H](O)C=C[C@@]31CCN(C)C2 [galantamine]
inhibition at 60 µg/mL ([1]; read-out: BChE inhibition): 67.3 ± 2.61%

CC1(C)CC[C@]2(C(=O)O)CC[C@]3(C)C(=CC[C@@H]4[C@@]5(C)C[C@@H](O)[C@H](O)C(C)(C)[C@@H]5CC[C@]43C)[C@@H]2C1 [maslinic acid]
IC50 [1]: 10.6 µM
IC50 [2]: 46.5 µM
